Test results from patent US10273236B2, “Macrocyclic factor XIa inhibitors bearing heterocyclic groups” (Bristol-Myers Squibb Company, priority 2014, dated 2019).
Structures can show the parent of a compound that is named as a salt. Where two headings read alike, the source gives them in different places. One block for each compound: values may come before it.

What was measured:
[1] = from C=CC[C@H](NC(=O)OC(C)(C)C)c1cc(-c2c(NC(=O)C(C=C)C(C)C)cnn2C)ccn1; rcm bond; 12-membered ring; Grubbs II (40 mol%); DCE; 36.7 mM; 120.0 °C
[2] = rcm bond, 12-membered ring
[3] = target: T1, purified human plasma kallikrein (Homo sapiens, UniProt P03952); test: Plasma kallikrein inhibition assay, chromogenic substrate S-2302 (Ki); assay type: biochemical
T1 construct: Plasma prekallikrein is a zymogen of a trypsin-like serine protease; purchased Enzyme Research Laboratories
In short: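 Purified human plasma kallikrein (200 pM final) with chromogenic substrate S-2302 at 0.00008-0.0004 M in 0.1 M sodium phosphate pH 7.5, 0.1-0.2 M NaCl, 0.5% PEG 8000. Velocities measured over 20-180 min with and without inhibitor; Ki derived assuming competitive inhibition, e.g. Ki=IC50/(1+S/Km).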

[4] = target: T2, purified human Factor XIa (Homo sapiens, UniProt P03951); test: Factor XIa inhibition assay, chromogenic substrate S-2366 (Ki); assay type: biochemical
T2 construct: purchased Haematologic Technologies
In short: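 Purified human FXIa (25-200 pM final) with S-2366 (0.0002-0.001 M) in 50 mM HEPES pH 7.4, 145 mM NaCl, 5 mM KCl, 0.1% PEG 8000. Velocities of absorbance change measured over 20-180 min with inhibitor present; Ki calculated for competitive inhibition from rates or IC50 via Ki=IC50/(1+S/Km).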

factor XIa = factor XIa (Homo sapiens, UniProt P03951); settings: value taken from WO 2014/022767, Table 1, page 89; cited from earlier work
Chain of factor XIa (P03951 388-625 limits assumed): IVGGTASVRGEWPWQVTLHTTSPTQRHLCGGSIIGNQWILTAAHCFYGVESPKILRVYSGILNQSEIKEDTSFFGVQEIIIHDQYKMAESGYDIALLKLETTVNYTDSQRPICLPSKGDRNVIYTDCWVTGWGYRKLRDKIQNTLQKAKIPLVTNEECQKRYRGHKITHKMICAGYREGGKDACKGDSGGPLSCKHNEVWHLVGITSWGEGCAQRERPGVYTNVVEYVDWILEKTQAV
Chain of factor XIa (P03951 19-387 partner limits assumed): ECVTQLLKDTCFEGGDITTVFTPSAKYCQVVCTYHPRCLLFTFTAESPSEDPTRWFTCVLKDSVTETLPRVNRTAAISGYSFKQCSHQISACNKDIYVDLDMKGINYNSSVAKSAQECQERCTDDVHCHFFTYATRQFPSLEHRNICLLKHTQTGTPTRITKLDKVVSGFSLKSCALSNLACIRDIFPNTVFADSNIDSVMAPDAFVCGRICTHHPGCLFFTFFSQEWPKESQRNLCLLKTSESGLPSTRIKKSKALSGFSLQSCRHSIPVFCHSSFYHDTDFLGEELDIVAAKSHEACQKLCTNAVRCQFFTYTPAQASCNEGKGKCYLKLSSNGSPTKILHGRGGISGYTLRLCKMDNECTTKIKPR

T1 sequence (P03952 391-638 limits assumed): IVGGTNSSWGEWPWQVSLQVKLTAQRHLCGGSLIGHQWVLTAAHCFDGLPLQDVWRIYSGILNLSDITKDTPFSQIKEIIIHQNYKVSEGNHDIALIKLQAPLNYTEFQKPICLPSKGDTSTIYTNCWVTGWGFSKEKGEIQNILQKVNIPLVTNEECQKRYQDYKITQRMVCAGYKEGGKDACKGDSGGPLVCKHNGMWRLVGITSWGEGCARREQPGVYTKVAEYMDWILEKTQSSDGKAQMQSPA
T1 sequence (P03952 20-390 partner limits assumed): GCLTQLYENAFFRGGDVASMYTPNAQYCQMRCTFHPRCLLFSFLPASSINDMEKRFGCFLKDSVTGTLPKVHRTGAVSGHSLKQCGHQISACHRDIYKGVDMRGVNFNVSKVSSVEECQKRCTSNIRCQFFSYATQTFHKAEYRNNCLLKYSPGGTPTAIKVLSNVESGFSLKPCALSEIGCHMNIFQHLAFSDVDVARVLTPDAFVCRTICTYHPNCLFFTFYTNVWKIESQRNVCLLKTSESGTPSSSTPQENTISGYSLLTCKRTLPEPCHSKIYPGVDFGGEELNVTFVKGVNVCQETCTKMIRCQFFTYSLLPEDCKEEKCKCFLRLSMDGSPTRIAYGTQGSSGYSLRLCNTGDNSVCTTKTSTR
T2 sequence (P03951 388-625 limits assumed): as the sequence (P03951 388-625 limits assumed) above
T2 sequence (P03951 19-387 partner limits assumed): as the sequence (P03951 19-387 partner limits assumed) above

Structure (SMILES): CC(C)[C@@H]1/C=C/C[C@H](NC(=O)OC(C)(C)C)c2cc(ccn2)-c2c(cnn2C)NC1=O
ring closure, yield after HPLC [1]: 16.8%

Structure (SMILES): CC(C)[C@H]1/C=C/C[C@H](NC(=O)OC(C)(C)C)c2cc(ccn2)-c2c(cnn2C)NC1=O
ring closure, yield after HPLC [1]: 16.8%

Structure (SMILES): C[C@@H]1/C=C/C[C@H](NC(=O)OC(C)(C)C)c2cc(ccn2)-c2c(cnn2C(F)F)NC1=O
ring closure, isolated yield ([2]; from C=CC[C@H](NC(=O)OC(C)(C)C)c1cc(-c2c(NC(=O)[C@H](C)C=C)cnn2C(F)F)ccn1, Grubbs II (25 mol%), EtOAc, 5.0 mM): 76%

Structure (SMILES): C[C@@H]1/C=C/C[C@H](NC(=O)OC(C)(C)C)c2cc(ccn2)-c2c(cnn2C)NC1=O
ring closure, isolated yield ([2]; from C=CC[C@H](NC(=O)OC(C)(C)C)c1cc(-c2c(NC(=O)[C@H](C)C=C)cnn2C)ccn1, Grubbs II (40 mol%), DCE, 78.3 mM, 120.0 °C): 20%

Structure (SMILES): C[C@@H]1/C=C/C[C@H](NC(=O)OC(C)(C)C)c2cccc(n2)-c2c(cnn2C)NC1=O
ring closure, isolated yield ([2]; from C=CC[C@H](NC(=O)OC(C)(C)C)c1cccc(-c2c(NC(=O)[C@H](C)C=C)cnn2C)n1, Grubbs II (40 mol%), EtOAc, 13.2 mM, 80.0 °C): 66%

Structure (SMILES): C[C@@H]1/C=C/C[C@H](NC(=O)OCc2ccccc2)c2cc(ccn2)-c2c(cnn2CCOC(C)(C)C)NC1=O
ring closure, isolated yield ([2]; from C=CC[C@H](NC(=O)OCc1ccccc1)c1cc(-c2c(NC(=O)[C@H](C)C=C)cnn2CCOC(C)(C)C)ccn1, Grubbs II (40 mol%), DCE, 35.6 mM, 120.0 °C, 0.5 h): 38%

Ki [3]: 6 nM
Ki [4]: 0.1 nM
Structure (SMILES): [2H]C([2H])([2H])n1ncc2c1-c1ccnc(c1)[C@@H](n1ccc(-c3cc(Cl)ccc3-n3cc(C(F)(F)F)nn3)cc1=O)CCC[C@@H](C)C(=O)N2 [Example 62, (9R,13S)-13-(4-{5-Chloro-2-[4-(trifluoromethyl)-1H-1,2,3-triazol-1-yl]phenyl}-2-oxo-1,2-dihydropyridin-1-yl)-3-(^2H3)methyl-9-methyl-3,4,7,15-tetraazatricyclo[12.3.1.0^2,6]octadeca-1(18),2(6),4,14,16-pentaen-8-one, trifluoroacetate]

Ki [3]: 77 nM
Ki [4]: 0.52 nM
Structure (SMILES): [2H]C([2H])([2H])n1ncc2c1-c1ccnc(c1)[C@@H](n1ncc(-c3cc(Cl)ccc3-n3cc(C(F)(F)F)nn3)cc1=O)CCC[C@@H](C)C(=O)N2 [Example 63, (9R,13S)-13-(4-{5-Chloro-2-[4-(trifluoromethyl)-1H-1,2,3-triazol-1-yl]phenyl}-6-oxo-1,6-dihydropyridazin-1-yl)-3-(^2H3)methyl-9-methyl-3,4,7,15-tetraazatricyclo[12.3.1.0^2,6]octadeca-1(18),2(6),4,14,16-pentaen-8-one trifluoroacetate]

Ki [3]: 52.6 nM
Ki [4]: 0.71 nM
Structure (SMILES): [2H]C([2H])([2H])n1ncc2c1-c1cc(ccn1)[C@@H](n1ncc(-c3cc(Cl)ccc3-n3cc(C(F)(F)F)nn3)cc1=O)CCC[C@@H](C)C(=O)N2 [Example 64, (9R,13S)-13-(4-{5-Chloro-2-[4-(trifluoromethyl)-1H-1,2,3-triazol-1-yl]phenyl}-6-oxo-1,6-dihydropyridazin-1-yl)-3-(^2H3)methyl-9-methyl-3,4,7,17-tetraazatricyclo[12.3.1.0^2,6]octadeca-1(18),2(6),4,14,16-pentaen-8-one]

Structure (SMILES): C[C@@H]1CCC[C@H](N2CCC(c3c(F)ccc(Cl)c3F)=CC2=O)c2cc(ccn2)-c2cn[nH]c2NC1=O [Example 221]
Ki (factor XIa): 1320 nM
